According to ChEMBL document CHEMBL5247652, “Discovery of Novel Substrate-Competitive Lysine Methyltransferase G9a Inhibitors as Anticancer Agents” (J Med Chem, 2023):
Converted amounts (≈) assume the structure as drawn.

What was measured:
[1] = target: T1, Histone-lysine N-methyltransferase EHMT2 (Homo sapiens, UniProt Q96KQ7); test: Inhibition of N-terminal GST-tagged human recombinant G9a (785 to 1210 residues) expressed in baculovirus infected Sf9 cells incubated for 1 hr by AlphaLISA analysis
T1 sequence (Q96KQ7 whole entry): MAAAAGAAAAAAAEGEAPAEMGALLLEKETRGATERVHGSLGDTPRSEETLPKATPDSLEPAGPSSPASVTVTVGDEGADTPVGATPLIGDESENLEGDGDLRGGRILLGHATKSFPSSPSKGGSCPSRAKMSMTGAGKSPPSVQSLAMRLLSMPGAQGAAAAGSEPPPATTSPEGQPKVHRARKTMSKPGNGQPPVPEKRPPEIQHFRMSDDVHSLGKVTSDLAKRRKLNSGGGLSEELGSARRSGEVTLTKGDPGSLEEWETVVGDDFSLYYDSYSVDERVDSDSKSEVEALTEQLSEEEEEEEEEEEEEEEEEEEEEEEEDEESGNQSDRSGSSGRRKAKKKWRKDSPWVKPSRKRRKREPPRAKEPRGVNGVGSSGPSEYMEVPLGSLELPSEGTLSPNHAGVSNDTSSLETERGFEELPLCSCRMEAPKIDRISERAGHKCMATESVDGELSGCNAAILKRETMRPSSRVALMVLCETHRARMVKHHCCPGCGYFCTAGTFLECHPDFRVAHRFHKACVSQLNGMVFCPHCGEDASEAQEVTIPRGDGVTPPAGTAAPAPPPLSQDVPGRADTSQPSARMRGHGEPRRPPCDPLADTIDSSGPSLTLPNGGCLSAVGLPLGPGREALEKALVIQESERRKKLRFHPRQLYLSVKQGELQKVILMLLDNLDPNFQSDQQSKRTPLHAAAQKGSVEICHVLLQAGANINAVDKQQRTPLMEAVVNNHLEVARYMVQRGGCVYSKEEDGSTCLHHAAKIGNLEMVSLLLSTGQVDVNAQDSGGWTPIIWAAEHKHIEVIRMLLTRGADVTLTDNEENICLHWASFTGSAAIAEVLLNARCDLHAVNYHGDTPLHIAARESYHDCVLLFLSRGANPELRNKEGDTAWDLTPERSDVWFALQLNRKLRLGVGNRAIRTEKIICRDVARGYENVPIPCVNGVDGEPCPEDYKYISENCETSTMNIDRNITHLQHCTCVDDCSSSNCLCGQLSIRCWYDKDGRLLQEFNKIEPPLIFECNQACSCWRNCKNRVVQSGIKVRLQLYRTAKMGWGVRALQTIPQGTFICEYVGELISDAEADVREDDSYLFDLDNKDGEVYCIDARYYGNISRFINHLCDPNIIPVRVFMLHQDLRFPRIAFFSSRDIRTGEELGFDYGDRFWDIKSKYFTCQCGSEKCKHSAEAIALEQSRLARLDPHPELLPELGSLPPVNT

[2] = Microsomal stability in human liver microsomes assessed as parent compound remaining after 30 mins in presence of NADPH by LC -MS/MS analysis; type: ADME, Microsome; conditions: read-out: Stability
[3] = Microsomal stability in mouse liver microsomes assessed as parent compound remaining after 30 mins in presence of NADPH by LC -MS/MS analysis; type: ADME, Microsome; conditions: read-out: Stability
[4] = Aqueous solubility of compound at pH 7.4 measured for 1 hr by UV-plate reader analysis; type: physicochemical; conditions: buffer
[5] = Permeability of compound by PAMPA assay; type: ADME; conditions: read-out: permeability

SMILES	IC50 [1] [nM]	remaining at 0.5 h [2] [%]	remaining at 0.5 h [3] [%]	solubility at 1 h [4] [µM]	Papp [5] [×10⁻⁶ cm/s]
CCCC[C@H](NC(=O)c1[nH]c2c(c1C(C)C)C(=O)CC(C)(C)C2)C(=O)Nc1ccccc1	72.4	–	–	–	–
CCCCC(NC(=O)c1[nH]c2c(c1C)C(=O)CC(C)(C)C2)C(=O)Nc1ccc(C(=O)O)cc1 (racemic)	1800	–	–	–	–
CCCC[C@@H](NC(=O)c1[nH]c2c(c1C)C(=O)CC(C)(C)C2)c1nc2ccccc2[nH]1	4500	–	–	–	–
Cc1c(C(=O)N[C@@H](CCCN(C)C)c2nc3ccccc3[nH]2)[nH]c2c1C(=O)CC(C)(C)C2	> 50000	–	–	–	–
Cc1c(C(=O)NC(CCc2ccccc2)C(=O)Nc2ccccc2)[nH]c2c1C(=O)CC(C)(C)C2 (racemic)	> 5000	–	–	–	–
Cc1c(C(=O)NC(CCC(C)C)C(=O)Nc2ccccc2)[nH]c2c1C(=O)CC(C)(C)C2 (racemic)	291	–	–	–	–
CCCCCC(NC(=O)c1[nH]c2c(c1C)C(=O)CC(C)(C)C2)C(=O)Nc1ccccc1 (racemic)	> 50000	–	–	–	–
Cc1c(C(=O)NC(CCCN)C(=O)Nc2ccccc2)[nH]c2c1C(=O)CC(C)(C)C2 (racemic)	12300	–	–	–	–
CCCC[C@H](NC(=O)c1[nH]c2c(c1C)C(=O)CC(C)(C)C2)c1nc2ccccc2[nH]1	1900	–	–	–	–
Cc1c(C(=O)N[C@@H](CCN(C)C)c2nc3ccccc3[nH]2)[nH]c2c1C(=O)CC(C)(C)C2	17000	–	–	–	–
CCCCC(NC(=O)c1[nH]c2c(c1C)C(=O)CC(C)(C)C2)C(=O)Nc1ccccc1OC (racemic)	802	11.8	1.7	7.2 (≈ 3.16 µg/mL)	49.4
CCCC[C@@H](NC(=O)c1[nH]c2c(c1C)C(=O)CC(C)(C)C2)C(=O)Nc1ccccc1	8640	–	–	–	–
CCCC[C@H](NC(=O)c1[nH]c2c(c1CC)C(=O)CC(C)(C)C2)C(=O)Nc1ccccc1	178	–	–	–	–
CCCC[C@H](NC(=O)c1[nH]c2c(c1C)C(=O)CC1(CCOCC1)C2)C(=O)Nc1ccccc1	2080	–	–	–	–
Cc1c(C(=O)NC(CC2CC2)C(=O)Nc2ccccc2)[nH]c2c1C(=O)CC(C)(C)C2 (racemic)	1160	–	–	–	–
Cc1c(C(=O)NC(CCC2(C)CC2)C(=O)Nc2ccccc2)[nH]c2c1C(=O)CC(C)(C)C2 (racemic)	1360	–	–	–	–
CCCCC(NC(=O)c1[nH]c2c(c1C)C(=O)CC(C)(C)C2)C(=O)Nc1ccccc1Cl (racemic)	1080	30	0.1	13.9 (≈ 6.17 µg/mL)	7.16
CCCCC(NC(=O)c1[nH]c2c(c1C)C(=O)CC(C)(C)C2)C(=O)Nc1ccccn1 (racemic)	4260	68.8	25.1	62.1 (≈ 25.5 µg/mL)	11.2
CCCC[C@H](NC(=O)c1[nH]c2c(c1C(C)(C)C)C(=O)CC(C)(C)C2)C(=O)Nc1ccccc1	> 50000	–	–	–	–
Cc1c(C(=O)NC(CCCCN)C(=O)Nc2ccccc2)[nH]c2c1C(=O)CC(C)(C)C2 (racemic)	27600	–	–	–	–
CCCC[C@H](NC(=O)c1[nH]c2c(c1C)C(=O)CC1(CCCCC1)C2)C(=O)Nc1ccccc1	1470	–	–	–	–
CC(C)NCC(O)COc1cccc2ccccc12 (centres undefined) [PROPRANOLOL]	–	–	–	–	19.4
CCCC[C@H](NC(=O)c1[nH]c2c(c1CCC)C(=O)CC(C)(C)C2)C(=O)Nc1ccccc1	306	–	–	–	–
CCCC[C@H](NC(=O)c1[nH]c2c(c1C)C(=O)CC(C)(C)C2)C(=O)Nc1ccccc1	355	–	–	–	–
CCCCC(NC(=O)c1c(C)c2c(n1C)CC(C)(C)CC2=O)C(=O)Nc1ccccc1 (racemic)	> 50000	–	–	–	–

SMILES	IC50 [1] [nM]	remaining at 0.5 h [2] [%]	remaining at 0.5 h [3] [%]	solubility at 1 h [4] [µM]	Papp [5] [×10⁻⁶ cm/s]
CSCC[C@H](NC(=O)c1[nH]c2c(c1C)C(=O)CC(C)(C)C2)c1nc2ccccc2[nH]1	1430	–	–	–	–
CCCCC(NC(=O)c1[nH]c2c(c1C)C(=O)CC(C)(C)C2)C(=O)Nc1ccc(Cl)cc1 (racemic)	1520	–	–	5.1 (≈ 2.26 µg/mL)	–
CCCCC(NC(=O)c1[nH]c2c(c1C)C(=O)CC(C)(C)C2)C(=O)N(C)c1ccccc1 (racemic)	> 50000	–	–	4.9 (≈ 2.08 µg/mL)	–
CCCCC(NC(=O)c1[nH]c2c(c1C)C(=O)CC(C)(C)C2)C(=O)Nc1cccc(C#N)c1 (racemic)	685	79.1	6.4	14.5 (≈ 6.3 µg/mL)	7.78
Cc1c(C(=O)NC(COC2CC2)C(=O)Nc2ccccc2)[nH]c2c1C(=O)CC(C)(C)C2 (racemic)	1600	–	–	–	–
CCCCC(NC(=O)c1[nH]c2c(c1C)C(=O)CC(C)(C)C2)C(=O)Nc1cccc(OC)c1 (racemic)	1210	–	–	3 (≈ 1.32 µg/mL)	–
CCCCC(NC(=O)c1[nH]c2c(c1C)C(=O)CC(C)(C)C2)C(=O)Nc1ccncc1 (racemic)	1140	15.7	59.4	133 (≈ 54.6 µg/mL)	3.63
CCCCC(NC(=O)c1[nH]c2c(c1C)C(=O)CC(C)(C)C2)C(=O)Nc1ccc(F)cc1 (racemic)	909	83.8	37.5	16.5 (≈ 7.05 µg/mL)	23.5
CCCCC(NC(=O)c1[nH]c2c(c1C)C(=O)CC(C)(C)C2)C(=O)Nc1cccc(Cl)c1 (racemic)	1540	–	–	4.5 (≈ 2 µg/mL)	–
CCCCC(NC(=O)c1[nH]c2c(c1C)C(=O)CC(C)(C)C2)C(=O)Nc1ccc(C(N)=O)cc1 (racemic)	526	90.9	92.2	104 (≈ 47.1 µg/mL)	0.62
CSCCC(NC(=O)c1[nH]c2c(c1C)C(=O)CC(C)(C)C2)c1nc2ccccc2[nH]1 (racemic)	5320	–	–	–	–
CCCCC(NC(=O)c1[nH]c2c(c1C)C(=O)CC(C)(C)C2)C(=O)Nc1cccnc1 (racemic)	1810	32.4	44.7	143 (≈ 58.7 µg/mL)	6.95
CCCCC(NC(=O)c1[nH]c2c(c1C)C(=O)CC(C)(C)C2)C(=O)Nc1ccc(C)cc1 (racemic)	491	–	–	1.8 (≈ 0.762 µg/mL)	–
CCCCC(NC(=O)c1[nH]c2c(c1C)C(=O)CC(C)(C)C2)C(=O)Nc1ccccc1 (racemic)	–	77.8	19.9	20.1 (≈ 8.23 µg/mL)	12.5
CCCCC(NC(=O)c1[nH]c2c(c1C)C(=O)CC(C)(C)C2)C(=O)Nc1ccc(C#N)cc1 (racemic)	446	89.5	63.9	12.9 (≈ 5.61 µg/mL)	3.68
CCCCNC(=O)C(CCCC)NC(=O)c1[nH]c2c(c1C)C(=O)CC(C)(C)C2 (racemic)	1090	30.6	0.8	11 (≈ 4.28 µg/mL)	8.73
CCCCC(NC(=O)c1[nH]c2c(c1C)C(=O)CCC2)C(=O)Nc1ccccc1 (racemic)	20900	–	–	–	–
Cc1c(C(=O)NC(CCC2CCC2)C(=O)Nc2ccccc2)[nH]c2c1C(=O)CC(C)(C)C2 (racemic)	636	–	–	–	–
CCCCC(NC(=O)c1[nH]c2c(c1C)C(=O)CC(C)(C)C2)C(=O)Nc1ccc(OC)cc1 (racemic)	1810	–	–	5.9 (≈ 2.59 µg/mL)	–
CCCCC(NC(=O)c1oc2c(c1C)C(=O)CC(C)(C)C2)C(=O)Nc1ccccc1 (racemic)	> 50000	–	–	–	–
CCCCC(NC(=O)c1[nH]c2c(c1C)C(=O)CC(C)(C)C2)C(=O)Nc1ccc(S(C)(=O)=O)cc1 (racemic)	2960	–	–	43.6 (≈ 21.3 µg/mL)	1.39
CCCCC(NC(=O)c1[nH]c2c(c1C)C(=O)CC(C)(C)C2)C(=O)NC1CCCCC1 (racemic)	925	1.2	0	15 (≈ 6.23 µg/mL)	4.15
CCCCC(NC(=O)c1[nH]c2c(c1C)CCC(C)(C)C2)C(=O)Nc1ccccc1 (racemic)	> 50000	–	–	–	–
CCCCC(NC(=O)c1[nH]c2c(c1C)C(=O)CC(C)(C)C2)C(=O)Nc1ccccc1C#N (racemic)	1570	40.8	5.5	15.5 (≈ 6.74 µg/mL)	7.85
CCCC(NC(=O)c1[nH]c2c(c1C)C(=O)CC(C)(C)C2)C(=O)Nc1ccccc1 (racemic)	4040	–	–	–	–
